The experiment relates to ovariectomized (OVX) rat skeleton. Description: Continuous combination therapy protocol in OVX rats, pQCT of femur. In kind it is in vivo, Sprague-Dawley (S-D) female rats. Particulars: 4 weeks treatment, EP4 agonist 0.3 mg/kg/d by Alzet pump, E2 0.01 mg/kg/d by pellets. The text has this: Prostaglandin E2 (PGE2) restores bone mass by stimulating both bone formation and bone resorption but in favor of bone formation in ovariectomized (OVX) rat skeleton. 5-(3-{2S-[3R-Hydroxy-4-(3-trifluoromethyl-phenyl)-butyl}-5-oxo-pyrrolidin-1-yl}-propyl)-thiophene-2-carboxylic acid, an EP4 receptor selective agonist, can mimic PGE2's systemic bone anabolic effects when given by daily subcutaneous injection. However, like PGE2, slow release delivery of 5-(3-{2S-[3R-hydroxy-4-(3-trifluoromethyl-phenyl)-butyl}-5-oxo-pyrrolidin-1-yl}-propyl)-thiophene-2-carboxylic acid, by Alzet pump may cause bone loss by stimulating both bone resorption and bone formation but in favor of bone resorption in OVX rat skeleton. Estrogen (17-βestradiol) inhibits bone resorption and turnover, thus preventing bone loss in OVX rats. […] Sprague-Dawley (S-D) female rats were sham-operated (n=20) or OVX (n=50) at 3.5 months of age. Three and an half months post-surgery, OVX rats were treated with either vehicle, 5-(3-{2S-[3R-hydroxy-4-(3-trifluoromethyl-phenyl)-butyl}-5-oxo-pyrrolidin-1-yl}-propyl)-thiophene-2-carboxylic acid at 0.3 mg/kg/d (by Alzet pumps in subcutaneous area, […] release rate, for duration of 14 days, replace the pumps at day 15), or 17-βestradiol (E2) at 0.01 mg/kg/d (administered by 30 day release pellets), or combined 5-(3-{2S-[3R-hydroxy-4-(3-trifluoromethyl-phenyl)-butyl}-5-oxo-pyrrolidin-1-yl}-propyl)-thiophene-2-carboxylic acid at 0.3 mg/kg/d (by Alzet pumps in subcutaneous area, […] release rate, for duration of 28 days) and 17-βestradiol (E2) at 0.01 mg/kg/d (administered by 30 day release pellets) for 4 weeks. Total mineral density and cortical bone area of distal femoral metaphysis and femoral shaft were determined by peripheral […] computerized tomography (pQCT) as described previously (Ke H. Z. et al., Lasofoxifene protects against the age-related changes in bone mass, bone strength, and total serum cholesterol in intact aged male rats. J. of Bone and Mineral Research, 2001;16:765-773).

`O=C(O)c1ccc(CCCN2C(=O)CC[C@@H]2CC[C@@H](O)Cc2cccc(C(F)(F)F)c2)s1` [5-(3-{2S-[3R-Hydroxy-4-(3-trifluoromethyl-phenyl)-butyl]-5-oxo-pyrrolidin-1-yl}-propyl)-thiophene-2-carboxylic acid]: the “change in cortical bone area of distal femoral metaphysis compared with OVX controls” value is on record as −15%, the “change in cortical bone area of femoral shaft compared with OVX controls” value was “no significant change”, the “change in total mineral density of distal femoral metaphysis compared with OVX controls” value is listed as −15% and the “change in total mineral density of femoral shaft compared with OVX controls” value is “no significant change”.

With `C[C@]12CC[C@@H]3c4ccc(O)cc4CC[C@H]3[C@@H]1CC[C@@H]2O` [17-βestradiol (E2), 17β-estradiol], the “change in cortical bone area of distal femoral metaphysis compared with OVX controls” value was “did not cause significant change”, the “change in cortical bone area of femoral shaft compared with OVX controls” value is given as “no significant change”, the “change in total mineral density of distal femoral metaphysis compared with OVX controls” value is on record as “did not cause significant change” and the “change in total mineral density of femoral shaft compared with OVX controls” value is “no significant change”.

The record behind these values is patent publication US20070191319A1, “Treatment of conditions that present with low bone mass by continuous combination therapy with selective prostaglandin ep4 receptor agonists and an estrogen” (Pfizer Inc., priority 2003, published 2007).
